Results published in patent US20240010989A1, “MEDIUM FOR CULTURING AND EXPANDING NEPHRON PROGENITOR CELLS, METHOD FOR CULTURING AND EXPANDING NEPHRON PROGENITOR CELLS, AND METHOD FOR PRODUCING RENAL ORGANOIDS” (Kyoto University, priority 2021, published 2024).

Columns and labels:
Assay type in all cases: cell-based, human
hNPC (Bulk) [1] = assay: Expression of NPC markers SIX2 and OSR1 in subcultured hNPC (Bulk); settings: 3 nM in CFY medium, subculture of hNPC (Bulk)
Method: A cell mass of the human iPS cell-derived NPC (hNPC) cultured in the test medium was transferred to a 1.5 ml tube, the supernatant was removed completely, 30 μL of Accumax (Innovative Cell Technologies, Inc.) was added, and the resultant was left to stand for 10 minutes in an incubator at 37° C. and 5% CO2. After 10 minutes, the sample was suspended in 470 μL of 10% FBS, and the cell count was measured with a TC20 (Bio-Rad Laboratories, Inc.). The human iPS cell-derived NPC were suspended in the test medium and then used to inoculate a low-attachment 96-well plate (Nunc) in an amount of 2.0×10^4 cells per well. This low-attachment 96-well plate that had been inoculated with the cells was centrifuged at 300 g for 3 minutes, and the cells were then subjected to static culture in an incubator at 37° C. and 5% CO2. Then, 48 hours after starting this static culture, an additional 100 μL of the test medium was administered to each well. Subsequently, 48 hours after this additional administration, the above operations were repeated, with the cell count being measured and a subculture conducted.
(§1) Expression of OSR1 and SIX2 was confirmed by conducting a culture test using these human iPS cells, and detecting the respective fluorescence from the GFP and tdTomato using a fluorescence microscope. […]

hNPC (c-MET(+)) [2] = assay: Expression of NPC markers OSR1 and SIX2 in subcultured hNPC (c-MET(+)); settings: 3 nM in CFY medium, subculture of hNPC (c-MET(+))
Method: (§2) Ten μL of human-HGFR/c-MET antibody to which the fluorescent substance APC had been bound (FAB 3582A, R&D Systems Inc.) was added to 100 μL of the 2% FBS suspension of the induced hNPC cells prepared above, and the resultant was left to stand for 30 minutes on ice. After 30 minutes, the sample was centrifuged at 200 g for 5 minutes, the supernatant was removed, the residue was washed with 1 mL of PBS, and the sample was once again centrifuged at 200 g for 5 minutes and the supernatant removed. This operation was conducted twice. […]
(§3) A cell mass of the human iPS cell-derived NPC (hNPC) cultured in the test medium was transferred to a 1.5 ml tube, the supernatant was removed completely, 30 μL of Accumax (Innovative Cell Technologies, Inc.) was added, and the resultant was left to stand for 10 minutes in an incubator at 37° C. and 5% CO2. After 10 minutes, the sample was suspended in 470 μL of 10% FBS, and the cell count was measured with a TC20 (Bio-Rad Laboratories, Inc.). […] Subsequently, 48 hours after this additional administration, the above operations were repeated, with the cell count being measured and a subculture conducted.
as §1

hNPC (c-MET(+)) [3] = assay: Production of renal organoids from subcultured hNPC (c-MET(+)); settings: 3 nM in CFY medium, cells of passage 1
Method: Ten μL of human-HGFR/c-MET antibody to which the fluorescent substance APC had been bound (FAB 3582A, R&D Systems Inc.) was added to 100 μL of the 2% FBS suspension of the induced hNPC cells prepared above, and the resultant was left to stand for 30 minutes on ice. After 30 minutes, the sample was centrifuged at 200 g for 5 minutes, the supernatant was removed, the residue was washed with 1 mL of PBS, and the sample was once again centrifuged at 200 g for 5 minutes and the supernatant removed. This operation was conducted twice. The cells obtained following removal of the supernatant were suspended in DAPI that had been diluted 1,000-fold with 2% FBS, and following filtration through a 40 μm filter, flow cytometry was used to extract the c-MET-positive cells.
A cell mass of hNPC that had been subcultured in the test medium were placed in a Transwell (Corning), and the surrounding medium was removed. Next, the Transwell with the cell mass thereon was set in a culture dish that had been filled with 5% KSR (Kock-out Serum Replacement) (Thermo Fisher Scientific) to which 200 ng/mL of FGF2 and 5 μM of CHIR99021 had been added in advance. After 48 hours, the medium was replaced with 5% KSR containing no added growth factors or low-molecular weight compounds. […]

hNPC (Bulk) [4] = assay: Cell growth (cell count, cumulative cell count) of hNPC (Bulk); settings: 3 nM in CFY medium (CFY+TG(3)) vs CFY+DMSO
Method: The hNPC were suspended in 50 μL of a test medium in sufficient amount to achieve 2.0×10^4 cells per well, and the suspension was then used to inoculate a low-attachment 96-well plate (Nunc), and following centrifuging at 300 g for 3 minutes, the cells were subjected to a static culture in an incubator at 37° C. and 5% CO2. Six hours after starting the static culture, a cell mass had formed.
(§4) Subsequently, 48 hours after the start of the static culture, an additional 100 μL of the same medium as that used at the time of cell inoculation was administered to each well. […] After 10 minutes, the sample was suspended in 470 μL of 10% FBS, and the cell count was measured with a TC20 (Bio-Rad Laboratories, Inc.).
as §3, with “conducted. […]” for “conducted.”

hNPC (Bulk) [5] = assay: Production of renal organoids from subcultured hNPC (Bulk); settings: 3 nM in CFY medium, cells of passage 2
Method: A cell mass of hNPC that had been subcultured in the test medium were placed in a Transwell (Corning), and the surrounding medium was removed. Next, the Transwell with the cell mass thereon was set in a culture dish that had been filled with 5% KSR (Kock-out Serum Replacement) (Thermo Fisher Scientific) to which 200 ng/mL of FGF2 and 5 μM of CHIR99021 had been added in advance. After 48 hours, the medium was replaced with 5% KSR containing no added growth factors or low-molecular weight compounds. Thereafter, the medium was replaced every 48 hours with fresh 5% KSR containing no added growth factors or low-molecular weight compounds, and on the 10th day after starting the differentiation culture, the cells were fixed for 3 hours at 4° C. using 4% PFA without removal from the Transwell. Following fixing, the medium was replaced with PBS, and after standing overnight at 4° C., immunostaining was conducted.
Bright field images of renal organoids were captured using either a KEYENCE BZ-X700 or a confocal microscope (Zeiss LSM710). Image analysis was performed using Image J version 1.51j8 (National Institutes of Health) (C. A. Schneider, et al., Nat Methods. 9 (2012) 671 to 675.).
Attempts were made to produce renal organoids from hNPC (Bulk) that had been subcultured using either the hNPSR medium or the CFY medium.

hNPC (c-MET(+)) [6] = assay: Cell growth (cumulative cell count) in subculture of hNPC (c-MET(+)); settings: 3 nM in CFY medium vs CFY+DMSO
Method: as §2, §4
A cell mass of the human iPS cell-derived NPC (hNPC) cultured in the test medium was transferred to a 1.5 ml tube, the supernatant was removed completely, 30 μL of Accumax (Innovative Cell Technologies, Inc.) was added, and the resultant was left to stand for 10 minutes in an incubator at 37° C. and 5% CO2. After 10 minutes, the sample was suspended in 470 μL of 10% FBS, and the cell count was measured with a TC20 (Bio-Rad Laboratories, Inc.). […]

hiPSC = assay: Differentiation induction efficiency of SIX2-positive cells, hNPC from hiPSC (differentiation induction method B)
Method: <Method for Differentially Inducing hNPC from hiPSC (Differentiation Induction Method B)> • 1. Undifferentiated hiPSC were converted to single cells using a TrypLE Select Enzyme (Gibco), and then using a medium prepared using DMEM/F12 Glutamax (Invitrogen) supplemented with B27 as the basal medium and adding 1 μM of CHIR99021, 10 nM of retinoic acid, 1 ng/ml of BMP4, 100 ng/ml of FGF2, 10 μM of Y-27632 and iMatrix-511 (Nippi) to this basal medium, plating was conducted at a density within a range from 1.0×10^4 cells/well to 5.0×10^4 cells/well, and the cells were then incubated for 24 hours at 37° C. (production of a late posterior epiblast: step 1). • 2. On day 1, medium replacement was conducted using a medium prepared by adding 5 μM of CHIR99021, 1 ng/ml of BMP7 and 100 ng/ml of FGF2 to the same basal medium as above (production of a mesodermal-lineage primitive streak: step 2). • 3. On day 2, medium replacement was conducted using a medium prepared by adding 5 μM of CHIR99021, 1 ng/ml of BMP7, 100 ng/ml of FGF2 and 10 μM of A83-01 to the same basal medium as above (production of a mesodermal-lineage late primitive streak: step 3). • 4. On day 3, medium replacement was conducted using a medium prepared by adding 5 μM of CHIR99021, 100 ng/ml of FGF2, 1 ng/ml of BMP7, 10 ng/ml of activin A and 30 μM of Y-27632 to the same basal medium (production of a metanephric-lineage late primitive streak: step 4). • 5. On day 6, medium replacement was conducted using a medium prepared by adding 100 nM of retinoic acid, 200 ng/ml of FGF9 and 25 ng/ml of Noggin to the same basal medium (production of a late posterior intermediate mesoderm: step 5). • 6. On day 8, medium replacement was conducted using a medium prepared by adding 1 μM of CHIR99021 and 200 ng/ml FGF9 to the same basal medium (production of hNPC: step 6).

Compound: Cc1cnc(Nc2ccc(OCCN3CCCC3)cc2)nc1Nc1cccc(S(=O)(=O)NC(C)(C)C)c1 [TG101348]
- expression of both OSR1 and SIX2 (hNPC (Bulk) [1]): maintained up until passage 3
- expression of both OSR1 and SIX2 (hNPC (c-MET(+)) [2]): maintained up until passage 3
- renal organoid formation (hNPC (c-MET(+)) [3]): formed
- cell growth (cell count) (hNPC (Bulk) [4]): promoted more
- renal organoid formation (hNPC (Bulk) [5]): formed
- cell growth (cumulative cell count) (hNPC (c-MET(+)) [6]): better promoted in all passages

Compound: FGF2: fibroblast growth factor 2 (basic FGF)
- induction efficiency into hNPC (hiPSC; FGF2 concentration in step 4 reduced to 10 ng/mL or less): decreased
- hNPC induction efficiency (hiPSC; concentration of FGF2 in step 3 varied (100, 30, 10 ng/ml)): no effect

Compound: heparin
- hNPC induction efficiency (hiPSC; 0.18 U/ml (1 μg/ml) heparin added with FGF2 in step 4): no effect
- hNPC induction efficiency (hiPSC; 0.18 U/ml (1 μg/ml) heparin added with FGF9 in step 5): no effect
